According to ChEMBL document CHEMBL1909046, “DrugMatrix in vitro pharmacology data”:

Key:
[1] = target: Beta-2 adrenergic receptor (Homo sapiens, UniProt P07550); test: DRUGMATRIX: Adrenergic beta2 radioligand binding (ligand: [3H] CGP-12177); format: cell membranes, CHO, Membrane; settings: cho; Not Active = under 50% inhibition at 10 µM
Carbonic anhydrase 2 = Carbonic anhydrase 2 (Homo sapiens, UniProt P00918); test: DRUGMATRIX: Carbonic Anhydrase II enzyme inhibition (substrate: 4-Nitrophenyl acetate (4-NPA)); format: tissue-based; settings: erythrocyte; Not Active = under 50% inhibition at 10 µM
[2] = DRUGMATRIX: Interleukin IL-1 radioligand binding (ligand: [125I] interleukin 1beta); format: cell membranes, Membrane; settings: nih3t3; Not Active = under 50% inhibition at 10 µM
[3] = target: T1, Neuropeptide Y receptor type 1 (Homo sapiens, UniProt P25929); format: cell membranes, Membrane; settings: sk-n-mc; also: in other assays of this panel Not Active means under 50% inhibition at 10 µM
T1 sequence (P25929 whole entry): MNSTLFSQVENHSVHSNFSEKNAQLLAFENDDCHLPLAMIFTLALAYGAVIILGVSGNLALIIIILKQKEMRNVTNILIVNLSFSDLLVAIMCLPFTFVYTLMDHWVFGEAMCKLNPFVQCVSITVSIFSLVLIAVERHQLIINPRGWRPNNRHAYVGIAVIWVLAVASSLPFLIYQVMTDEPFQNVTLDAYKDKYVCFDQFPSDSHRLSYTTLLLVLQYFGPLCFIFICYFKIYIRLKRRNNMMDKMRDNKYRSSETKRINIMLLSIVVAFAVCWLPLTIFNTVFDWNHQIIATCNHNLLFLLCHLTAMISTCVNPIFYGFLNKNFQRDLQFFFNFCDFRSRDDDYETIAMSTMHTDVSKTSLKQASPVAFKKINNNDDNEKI

[4] = DRUGMATRIX: Phosphodiesterase PDE4 enzyme inhibition (substrate: [3H]cAMP + cAMP); settings: u-937; Not Active = under 50% inhibition at 10 µM
[5] = target: Mitogen-activated protein kinase 14 (Homo sapiens, UniProt Q16539); design: species or system Escherichia coli;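 also: inhibition of p38alpha enzyme activity in a biochemical kinase assay, with myelin basic protein serving as substrate; in other assays of this panel Not Active means under 50% inhibition at 10 µM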
Glucocorticoid receptor = target: T2, Glucocorticoid receptor (Homo sapiens, UniProt P04150); settings: hela s3; also: in other assays of this panel Not Active means under 50% inhibition at 10 µM
T2 sequence (P04150 whole entry): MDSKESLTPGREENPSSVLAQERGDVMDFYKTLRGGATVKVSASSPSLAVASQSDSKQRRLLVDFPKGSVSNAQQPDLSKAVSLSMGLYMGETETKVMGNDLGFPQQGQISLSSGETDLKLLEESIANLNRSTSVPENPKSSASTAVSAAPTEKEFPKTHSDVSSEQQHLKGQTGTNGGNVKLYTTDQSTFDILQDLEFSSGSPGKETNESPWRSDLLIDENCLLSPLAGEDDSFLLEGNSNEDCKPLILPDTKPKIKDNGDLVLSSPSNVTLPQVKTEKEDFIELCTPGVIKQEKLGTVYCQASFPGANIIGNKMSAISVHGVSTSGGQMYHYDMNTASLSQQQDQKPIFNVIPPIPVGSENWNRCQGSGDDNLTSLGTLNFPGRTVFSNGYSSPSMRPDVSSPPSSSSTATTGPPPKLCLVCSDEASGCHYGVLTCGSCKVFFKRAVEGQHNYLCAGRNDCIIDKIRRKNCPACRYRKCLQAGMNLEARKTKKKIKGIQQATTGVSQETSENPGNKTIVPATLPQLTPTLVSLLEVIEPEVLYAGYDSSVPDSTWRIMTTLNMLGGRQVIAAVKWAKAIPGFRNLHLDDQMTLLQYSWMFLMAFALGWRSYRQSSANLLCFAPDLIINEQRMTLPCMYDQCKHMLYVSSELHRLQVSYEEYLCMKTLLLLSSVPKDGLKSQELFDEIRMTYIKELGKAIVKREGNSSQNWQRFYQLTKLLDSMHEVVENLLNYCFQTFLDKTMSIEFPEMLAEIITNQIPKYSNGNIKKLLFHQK

Estrogen receptor beta = Estrogen receptor beta (Homo sapiens, UniProt Q92731); settings: sf9; also: in other assays of this panel Not Active means under 50% inhibition at 10 µM
Estrogen receptor beta, sequence (Q92731 whole entry): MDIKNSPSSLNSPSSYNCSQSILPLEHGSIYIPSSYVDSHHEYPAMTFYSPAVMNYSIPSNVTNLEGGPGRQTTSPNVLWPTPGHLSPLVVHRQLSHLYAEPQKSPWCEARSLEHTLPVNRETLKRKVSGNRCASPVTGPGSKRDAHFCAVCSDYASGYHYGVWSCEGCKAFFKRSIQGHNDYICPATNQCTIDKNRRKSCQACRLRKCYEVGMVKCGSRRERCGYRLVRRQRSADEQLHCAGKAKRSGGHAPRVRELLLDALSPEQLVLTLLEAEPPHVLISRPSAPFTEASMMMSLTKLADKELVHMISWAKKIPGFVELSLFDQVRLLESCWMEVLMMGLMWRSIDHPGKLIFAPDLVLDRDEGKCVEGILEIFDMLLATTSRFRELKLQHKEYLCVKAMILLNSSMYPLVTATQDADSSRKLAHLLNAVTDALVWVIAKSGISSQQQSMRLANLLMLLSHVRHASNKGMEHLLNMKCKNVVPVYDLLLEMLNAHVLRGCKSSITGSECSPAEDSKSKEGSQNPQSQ

Mitogen-activated protein kinase 14, sequence (Q16539 whole entry): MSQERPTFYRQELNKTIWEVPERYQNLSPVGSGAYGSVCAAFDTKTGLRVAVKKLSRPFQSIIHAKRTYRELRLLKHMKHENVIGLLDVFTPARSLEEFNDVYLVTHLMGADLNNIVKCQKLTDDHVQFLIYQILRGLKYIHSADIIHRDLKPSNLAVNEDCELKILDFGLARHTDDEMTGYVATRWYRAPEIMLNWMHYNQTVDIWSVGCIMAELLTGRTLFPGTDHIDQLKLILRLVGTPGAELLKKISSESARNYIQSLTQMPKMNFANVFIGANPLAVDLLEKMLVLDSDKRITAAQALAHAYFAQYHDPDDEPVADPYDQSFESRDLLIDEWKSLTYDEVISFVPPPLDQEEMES
Beta-2 adrenergic receptor, sequence (P07550 whole entry): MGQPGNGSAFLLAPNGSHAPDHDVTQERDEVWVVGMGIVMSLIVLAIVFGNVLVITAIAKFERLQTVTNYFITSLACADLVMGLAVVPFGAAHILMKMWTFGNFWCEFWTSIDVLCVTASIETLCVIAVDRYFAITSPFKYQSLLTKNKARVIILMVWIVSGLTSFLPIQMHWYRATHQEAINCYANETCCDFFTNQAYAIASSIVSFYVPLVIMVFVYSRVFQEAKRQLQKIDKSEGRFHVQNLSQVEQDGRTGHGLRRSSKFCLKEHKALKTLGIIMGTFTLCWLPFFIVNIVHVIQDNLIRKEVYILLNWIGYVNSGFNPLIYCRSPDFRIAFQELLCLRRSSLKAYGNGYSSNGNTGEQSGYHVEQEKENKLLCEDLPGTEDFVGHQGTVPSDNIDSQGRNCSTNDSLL

O=C/C=C/c1ccccc1
Not Active: IC50 [1] | IC50 (Carbonic anhydrase 2) | IC50 [2] | Ki [2] | IC50 [3] | IC50 [4] | Ki [4] | IC50 [5] | IC50 (Glucocorticoid receptor)

COc1ccc(C(=O)N2CCCC2=O)cc1
Not Active: IC50 [1] | IC50 (Carbonic anhydrase 2) | IC50 [2] | Ki [2] | IC50 [3] | IC50 [4] | Ki [4] | IC50 [5] | IC50 (Glucocorticoid receptor)

CC[C@H](C)[C@H]1O[C@]2(C=C[C@@H]1C)C[C@@H]1C[C@@H](C/C=C(\C)[C@@H](O[C@H]3C[C@H](OC)[C@@H](O[C@H]4C[C@H](OC)[C@@H](O)[C@H](C)O4)[C@H](C)O3)[C@@H](C)/C=C/C=C3\CO[C@@H]4[C@H](O)C(C)=C[C@@H](C(=O)O1)[C@]34O)O2.CO[C@H]1C[C@H](O[C@H]2[C@H](C)O[C@@H](O[C@@H]3/C(C)=C/C[C@@H]4C[C@@H](C[C@]5(C=C[C@H](C)[C@@H](C(C)C)O5)O4)OC(=O)[C@@H]4C=C(C)[C@@H](O)[C@H]5OC/C(=C\C=C\[C@@H]3C)[C@]54O)C[C@@H]2OC)O[C@@H](C)[C@@H]1O [ABAMECTIN]
Not Active: IC50 [1] | IC50 (Carbonic anhydrase 2) | IC50 [2] | Ki [2] | IC50 [3] | IC50 [4] | Ki [4] | IC50 [5] | IC50 (Glucocorticoid receptor)

Cn1c(=O)c2[nH]cnc2n(C)c1=O.Cn1c(=O)c2[nH]cnc2n(C)c1=O.NCCN [AMINOPHYLLINE]
Not Active: IC50 [1] | IC50 (Carbonic anhydrase 2) | IC50 [2] | Ki [2] | IC50 [3] | IC50 [4] | Ki [4] | IC50 [5]

CC1(C)S[C@@H]2[C@H](NC(=O)[C@H](N)c3ccccc3)C(=O)N2[C@H]1C(=O)O [AMPICILLIN]
Not Active: IC50 [1] | IC50 (Carbonic anhydrase 2) | IC50 [2] | Ki [2] | IC50 [3] | IC50 [4] | Ki [4] | IC50 [5] | IC50 (Glucocorticoid receptor)

COc1ccc2cc3[n+](cc2c1OC)CCc1cc2c(cc1-3)OCO2.[Cl-] [BERBERINE CHLORIDE]
Not Active: IC50 [1] | IC50 (Carbonic anhydrase 2) | IC50 [2] | Ki [2] | IC50 [3] | IC50 [4] | Ki [4] | IC50 [5] | IC50 (Glucocorticoid receptor)

O=C(O)CCNC(=O)c1ccccc1 [BETAMIPRON]
Not Active: IC50 [1] | IC50 (Carbonic anhydrase 2) | IC50 [2] | Ki [2] | IC50 [3] | IC50 [4] | Ki [4] | IC50 [5] | IC50 (Glucocorticoid receptor)

COc1cc(N)c(Cl)cc1C(=O)NC1CCN(CCCOc2ccc(F)cc2)CC1OC (configuration not stated) [CISAPRIDE]
Not Active: IC50 [1] | IC50 (Carbonic anhydrase 2) | IC50 [2] | Ki [2] | IC50 [3] | IC50 [4] | Ki [4] | IC50 [5] | IC50 (Glucocorticoid receptor)

Nc1ccn([C@@H]2O[C@H](CO)[C@@H](O)[C@@H]2O)c(=O)n1 [CYTARABINE]
Not Active: IC50 [1] | IC50 (Carbonic anhydrase 2) | IC50 [2] | Ki [2] | IC50 [3] | IC50 [4] | Ki [4] | IC50 [5] | IC50 (Glucocorticoid receptor)

C[C@@H]1C[C@H]2[C@@H]3CCC4=CC(=O)C=C[C@]4(C)[C@@]3(F)[C@@H](O)C[C@]2(C)[C@@]1(O)C(=O)CO [DEXAMETHASONE]
Not Active: IC50 [1] | IC50 (Carbonic anhydrase 2) | IC50 [2] | Ki [2] | IC50 [3] | IC50 [4] | Ki [4] | IC50 [5]

CN(C)CC[C@@H](c1ccc(Cl)cc1)c1ccccn1 [DEXCHLORPHENIRAMINE]
Not Active: IC50 [1] | IC50 (Carbonic anhydrase 2) | IC50 [2] | Ki [2] | IC50 [3] | IC50 [4] | Ki [4] | IC50 [5] | IC50 (Glucocorticoid receptor)

OC(CCCN1CCCCC1)(c1ccccc1)c1ccccc1 [DIPHENIDOL]
Not Active: IC50 [1] | IC50 (Carbonic anhydrase 2) | IC50 [2] | Ki [2] | IC50 [3] | IC50 [4] | Ki [4] | IC50 [5]

CC[C@H]1CN2CCc3cc(OC)c(OC)cc3[C@@H]2C[C@@H]1C[C@H]1NCCc2cc(OC)c(OC)cc21 [EMETINE]
Not Active: IC50 [1] | IC50 (Carbonic anhydrase 2) | IC50 [2] | Ki [2] | IC50 [3] | IC50 [4] | Ki [4] | IC50 [5] | IC50 (Glucocorticoid receptor)

CCC1(C)CC(=O)NC1=O (configuration not stated) [ETHOSUXIMIDE]
Not Active: IC50 [1] | IC50 (Carbonic anhydrase 2) | IC50 [2] | Ki [2] | IC50 [3] | IC50 [4] | Ki [4] | IC50 [5] | IC50 (Glucocorticoid receptor)

C=CCc1ccc(O)c(OC)c1 [EUGENOL]
Not Active: IC50 [1] | IC50 (Carbonic anhydrase 2) | IC50 [2] | Ki [2] | IC50 [3] | IC50 [4] | Ki [4] | IC50 [5]

CC(C)(C)NC(=O)[C@H]1CC[C@H]2[C@@H]3CC[C@H]4NC(=O)C=C[C@]4(C)[C@H]3CC[C@]12C [FINASTERIDE]
Not Active: IC50 [1] | IC50 (Carbonic anhydrase 2) | IC50 [2] | Ki [2] | IC50 [3] | IC50 [4] | Ki [4] | IC50 [5] | IC50 (Glucocorticoid receptor)

CC(C)=CCC/C(C)=C/CO [GERANIOL]
Not Active: IC50 [1] | IC50 (Carbonic anhydrase 2) | IC50 [2] | Ki [2] | IC50 [3] | IC50 [4] | Ki [4] | IC50 [5] | IC50 (Glucocorticoid receptor)

N=C(N)NC(=O)Cc1c(Cl)cccc1Cl [GUANFACINE]
Not Active: IC50 [1] | IC50 (Carbonic anhydrase 2) | IC50 [2] | Ki [2] | IC50 [3] | IC50 [4] | Ki [4] | IC50 [5] | IC50 (Glucocorticoid receptor)

NNc1nncc2ccccc12 [HYDRALAZINE]
Not Active: IC50 [1] | IC50 (Carbonic anhydrase 2) | IC50 [2] | Ki [2] | IC50 [3] | IC50 [4] | Ki [4] | IC50 [5] | IC50 (Glucocorticoid receptor)

C#CC1(O)CC[C@H]2[C@@H]3CCC4=CC(=O)CC[C@@H]4[C@H]3CC[C@@]21CC (some centres not stated) [NORGESTREL]
Not Active: IC50 [1] | IC50 (Carbonic anhydrase 2) | IC50 [2] | Ki [2] | IC50 [3] | IC50 [4] | Ki [4] | IC50 [5]

COC(=O)Nc1nc2ccc([S+]([O-])c3ccccc3)cc2[nH]1 (configuration not stated) [OXFENDAZOLE]
Not Active: IC50 [1] | IC50 (Carbonic anhydrase 2) | IC50 [2] | Ki [2] | IC50 [3] | IC50 [4] | Ki [4] | IC50 [5] | IC50 (Glucocorticoid receptor)

CCCNCC(O)COc1ccccc1C(=O)CCc1ccccc1 (configuration not stated) [PROPAFENONE]
Not Active: IC50 (Carbonic anhydrase 2) | IC50 [2] | Ki [2] | IC50 [3] | IC50 [4] | Ki [4] | IC50 [5] | IC50 (Estrogen receptor beta)
